{
  "source": "patent EP1699833B1",
  "about": "“OLIGOMERS CONTAINING N-ACETYL GLUCOSAMINE” (Council of Scientific and Industrial Research, priority 2003, dated 2005)",
  "target": "lysozyme (Gallus gallus, UniProt P00698)",
  "sequence (P00698 19-147)": "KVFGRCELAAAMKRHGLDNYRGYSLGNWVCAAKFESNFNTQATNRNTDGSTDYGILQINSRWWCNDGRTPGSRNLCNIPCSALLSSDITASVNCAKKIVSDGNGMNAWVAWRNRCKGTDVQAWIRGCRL",
  "assay": "Relative inhibition of lysozyme (lysis of Micrococcus lysodeikticus, absorbance at 450 nm)",
  "assay_type": "biochemical",
  "conditions": "Micrococcus lysodeikticus substrate, phosphate buffer pH 6.2, 20° C; for IC50: read-out: I50; for Imax: maximum inhibition; for concentration at maximum inhibition: concentration at Imax",
  "experimental": "This example describes estimation of relative inhibition of lysozyme by polyvalent oligomer containing NAG\n1.5 % w/v stock solutions of oligomer containing NAG was prepared in 0.0066 M phosphate buffer pH 6.2 containing 0.0154 m sodium chloride and 0.008 M sodium azide. One milliliter of stock solution containing different ligand concentration was mixed with 1.6 ml of 78 µg1ml of Micrococcus lysodeikticus in a 3-ml capacity lass cuvette. The mixture was incubated for 5 minutes at 20° C. To this mixture 0.1 ml of lysozyme (27 µg1ml) was added and mixed thoroughly. The absorbance at 450 nm (Δ450) was recorded for 30 seconds. A blank reading without the polymer ligand was noted and the change in the absorbance per second was calculated.",
  "data": [
    {"molecule": "C=CC(=O)OCC1OC(O)C(NC(C)=O)C(O)C1O", "note": "(stereo not shown) [Ac .NAG, Acryloyl N-Acetyl Glucosamine]", "values": [
      {"measurement": "IC50", "value": 14.8, "unit": "mM"},
      {"measurement": "Imax", "value": 50.00}
    ]},
    {"molecule": "CC(=O)N[C@H]1C(O)O[C@H](CO)[C@@H](O)[C@@H]1O", "note": "(stereo partly shown) [NAG, N-Acetyl Glucosamine]", "values": [
      {"measurement": "concentration at maximum inhibition", "value": 92.50, "unit": "mM"},
      {"measurement": "Imax", "value": 55.29}
    ]},
    {"molecule": "Methacryloyl N-Acetyl Glucosamine [M.Ac. NAG]", "values": [
      {"measurement": "IC50", "value": 18.1, "unit": "mM"},
      {"measurement": "concentration at maximum inhibition", "value": 21.2, "unit": "mM"},
      {"measurement": "Imax", "value": 71.89}
    ]}
  ]
}
